In this experiment the test system is Plasmodium falciparum. The experiment can be described thus: GSK_TCMDC: Inhibition of Plasmodium falciparum 3D7 in whole erythrocytes, using parasite LDH activity as an index of growth. It is filed as functional, organism-based. The following applies: Plasmodium falciparum, 3D7.
Compound `c1ccc(C(OCCC2CCN(Cc3cccnc3)CC2)c2ccccc2)cc1` showed an XC50 of 817 nM.

Take `CN(C)Cc1cccc(-c2ccc(Nc3nccc(NCC(O)c4ccccc4)n3)cc2)c1` (centres undefined): the XC50 is 136 nM. The figure for `CCc1c(CCNCCCCCCNCCc2ccc([N+](=O)[O-])cc2)ccc(OC)c1OC` is 727 nM. For `N=C(NCCc1ccccc1Cl)c1ccc2ccccc2c1`, the XC50 worked out at 1630 nM. The compound `Cc1cc(N[C@@H](CC(C)C)C(=O)NCc2cccc(F)c2)nc(NCCc2ccccc2)n1` yielded an XC50 of 1080 nM. On to `CN1CC(c2ccc(Cl)c(Cl)c2)OC1=N` (centres undefined), for which the XC50 is 283 nM. Compound `COCc1ccccc1C(=O)NCCOc1cc(C)cc(C)c1` came in with an XC50 of 353 nM.

In turn, `COc1ccc(Nc2cc(C)nc(NCc3ccc4c(c3)OCO4)n2)cc1` registered an XC50 of 766 nM. The figure for `CCc1cn2c3c(cc(C(=O)N[C@@H](Cc4cccc(F)c4)[C@H](O)CNC4CC4)cc13)N(C)S(=O)(=O)CC2` is 143 nM. Turning to `O=C(Nc1ccc(C(=O)N2CCN(CCN3CCN(c4cccc(C(F)(F)F)c4)CC3)CC2)cc1)c1ccc(OC(F)(F)F)cc1`, the XC50 amounted to 691 nM. The figure for `O=C(O)c1ccc(-c2cnc3ccc(NC4CCC(O)CC4)nn23)cc1` (centres undefined) is 995 nM. `c1ccc(COc2ccc(Cn3ccc(-c4ccc(-n5ccnc5)cc4)n3)cc2)cc1.c1ccc(COc2ccc(Cn3nccc3-c3ccc(-n4ccnc4)cc3)cc2)cc1` gave an XC50 of 1020 nM. `CCC(C)(C)c1ccc2nc(N)nc(N)c2c1C` registered an XC50 of 5.21 nM. Regarding `CCN(CC)c1ccc(C(c2ccc(N(CC)CC)cc2)c2cccc([N+](=O)[O-])c2)cc1`, the XC50 was determined as 381 nM.

With `CC1(C)NC(N)=NC(=N)N1OCCCNC(=O)c1ccc([N+](=O)[O-])cc1`, the XC50 worked out at 3.2 nM.

Compound `CC(=O)Nc1ncc(C(=O)Nc2cccc(-c3ccc(-c4nc5cc(F)ccc5[nH]4)cc3)c2)s1` registered an XC50 of 622 nM. Consider `Cc1cc(=O)c2cc(Oc3cccc(OC(F)(F)F)c3)ccc2[nH]1`, for which the XC50 amounted to 862 nM.

On to `Cc1cnc(Nc2ccccc2)nc1N[C@@H](CCCN)C(=O)Nc1ccccc1`, for which the XC50 was 807 nM.

`COc1cc(Nc2nccc(N3CCC(NC(=O)C4COc5ccccc5O4)C3)n2)cc(OC)c1OC` (centres undefined) showed an XC50 of 924 nM. As to `CC(Cc1ccc(Sc2ccccc2)cc1)NCC(O)c1cccc(C(F)(F)F)c1` (centres undefined), the XC50 came to 589 nM.

In the case of `COc1ccccc1C1CCN(C2CCC(NC(=O)/C=C/c3ccc(C(F)(F)F)cc3)CC2)CC1` (centres undefined), the XC50 came to 1160 nM.

On to `CCCCCCNC(=O)C(N)CCCC(N)C(=O)NCCCCCC` (centres undefined), for which the XC50 was determined as 162 nM. Take `CC1CCC2(CC1)NC(N)=NC(=N)N2OCCCCCCCCO` (centres undefined): the XC50 came out at 147 nM. On to `Cn1cncc1C(=O)Nc1ccc(-c2cccc(-c3nc4cc(C(F)(F)F)ccc4[nH]3)c2)cc1`, for which the XC50 is 858 nM. The figure for `CCn1c(=O)c(C(=O)Nc2cc(Cl)c(OC)cc2OC)nc2ccccc21` is 244 nM. The figure for `CCCCCCCn1c(=N)n(CC(O)c2ccc(Cl)c(Cl)c2)c2ccccc21` (centres undefined) is 782 nM; for `CO/C(=C\C=C\c1cc2cc(Cl)c(Cl)cc2[nH]1)C(=O)Nc1ccc(NCCN(C)C)nc1` it is 765 nM. As to `c1ccc2cc3c(Nc4ccc(N5CCCCCC5)cc4)ccnc3cc2c1`, the XC50 is 936 nM. In the case of `COc1ccc2nccc([C@@H](O)CN3CCC(NC(=O)/C=C/c4cc([N+](=O)[O-])ccc4OC)CC3)c2c1`, the XC50 was determined as 258 nM. The figure for `CCc1cn2c3c(cc(C(=O)N[C@@H](Cc4ccccc4)[C@H](O)CNCc4ccccc4C)cc13)N(C)S(=O)(=O)CC2` is 271 nM. On to `CCSc1nnc(C2CCCN(CC(=O)Nc3cc(C(F)(F)F)ccc3Cl)C2)n1CC` (centres undefined), for which the XC50 stood at 232 nM. Regarding `CC(=O)N[C@H](C(=O)Nc1ccc(-c2ccc(-c3nc4cc(C(F)(F)F)ccc4[nH]3)cc2)cc1)C(C)C`, the XC50 is 889 nM.

Take `O=C(NCc1cccc2ccccc12)C1CCCN(C(=O)c2ccc(O)c(-c3ccc(Cl)c(Cl)c3)c2)C1` (centres undefined): the XC50 is 1030 nM.

Consider `FC(F)(F)c1ccc2[nH]c(-c3ccc(-c4ccc(CN5CCN(c6cnccn6)CC5)cc4)cc3)nc2c1`, for which the XC50 was determined as 687 nM.

For the compound `CC(=O)NCCNc1cc(N2CCc3ncnc(Nc4ccc(OCc5c(F)cccc5F)c(Cl)c4)c3C2)ncn1`, the XC50 is 160 nM. In turn, `CCOC(=O)c1cc(C(=O)OC)c2ccccn12` had an XC50 of 223 nM. The compound `CC(CN(C)C)C(=O)Nc1ccc(-c2cccc(-c3nc4cc(C(F)(F)F)ccc4[nH]3)c2)cc1` (centres undefined) showed an XC50 of 210 nM. The figure for `COc1cc2nc(NCC3CCN(C(=O)c4ccc(-c5ccc(C(=O)N(C)C)cc5C)cc4)CC3)nc(N)c2cc1OC` is 948 nM; for `CCn1c(Sc2ccc(C#N)c([N+](=O)[O-])c2)nnc1-c1ccc(Cl)cc1` it is 552 nM; for `CN=c1nc(NN=Cc2ccccc2Cl)[nH]c(=Nc2cccc(C(F)(F)F)c2)[nH]1` it is 915 nM. As for `CS(=O)(=O)N(c1cccc(F)c1)c1cc(C(=O)N[C@@H](Cc2ccccc2)[C@H](O)CNCc2cccc(C(F)(F)F)c2)cc(N2CCCC2=O)c1`, the XC50 is 910 nM. Turning to `c1cc(CN2CCCCC2)cc(-c2cccc(-c3nc4ccccc4[nH]3)c2)c1`, the XC50 came out at 828 nM.

With `CCOc1ccc(C(Cc2ccccc2)NC(=O)c2cccnc2)cc1OCC` (centres undefined), the XC50 was 769 nM. As for `CCCC(C)NC[C@@H](O)[C@H](Cc1ccccc1)NC(=O)c1cc(NCC)cc(N2CCCCS2(=O)=O)c1` (some centres undefined), the XC50 worked out at 163 nM. The figure for `CCNc1cc(C(=O)N[C@@H](Cc2ccccc2)[C@H](O)CNC23CCC(CC2)CC3)cc(N2CCCCS2(=O)=O)c1` is 63.2 nM; for `COc1ccc(CN2CCC(NCc3cccc([N+](=O)[O-])c3)CC2)cc1` it is 910 nM.

Regarding `O=C(/C=C/c1ccc(Cl)c(Cl)c1)NCCCCCN1CC[C@H](NC(=O)c2sc3ccccc3c2Cl)C1`, the XC50 came out at 809 nM. `Cc1cc(C(=O)Nc2ccc3c(c2)CCN3C2CCN(Cc3csc4ccccc34)C2)no1` (centres undefined) registered an XC50 of 119 nM. As to `COc1ccc2nccc([C@@H](O)CN3CCC(NCc4ccc5c(c4)OCCO5)CC3)c2c1`, the XC50 was found to be 288 nM.

For `Fc1cc(CN2CCCC2)ccc1OCCCN1CCN(c2cccc(Cl)c2Cl)CC1`, the XC50 amounted to 1040 nM.

The compound `COc1cc(C(F)(F)F)c2cc(CNCCCNc3nc4ccccc4[nH]3)[nH]c2c1` yielded an XC50 of 305 nM. The figure for `CC(C)N(C)C(=O)n1cnc(S(=O)(=O)C2CC3CCC2C3)n1` (centres undefined) is 57 nM; for `CC(C)c1ccc(NC(=O)NCCCC2CCCN(CCCCCNC(=O)/C=C/c3ccc(Cl)c(Cl)c3)C2)cc1` (centres undefined) it is 957 nM. In turn, `CN1CCC(N2CCN(Cc3ccc(-c4cccc(-c5nc6cc(F)ccc6[nH]5)c4)cc3)CC2)CC1` gave an XC50 of 173 nM.

For the compound `COc1ccc(NC(=O)Nc2cccc(-c3cccc(-c4nc5ccccc5[nH]4)c3)c2)cc1`, the XC50 amounted to 309 nM. `Cc1cc(CN2CCC(N3CC(c4ccccc4)(c4ccccc4)OC3=O)C2)ccc1O` (centres undefined) displayed an XC50 of 776 nM.

Turning to `COc1c(CN2CCOCC2)cccc1-c1cc2c(-c3ccc(C(=O)O)c(C(C)C)c3)ccnc2[nH]1`, the XC50 is 742 nM. For the compound `Cc1cc(=NN=Cc2ccc(Cl)cc2)c2cc(F)ccc2[nH]1`, the XC50 is 828 nM.

Regarding `CC(C(=O)Nc1ccc(Br)cc1Br)N1CCN(C(=O)c2ccco2)CC1` (centres undefined), the XC50 turned out to be 750 nM. The figure for `c1cc(-c2ccc(CNCCc3ccncc3)cc2)cc(-c2nc3ccccc3[nH]2)c1` is 139 nM; for `O=C(Nc1ccc(S(=O)(=O)N2CCCCC2)cc1)c1cc(-c2ccccc2O)n[nH]1` it is 846 nM; for `Cc1cccc2nc(-c3ccc(-c4cccc(NC(=O)C(C)CN5CCN(C)CC5)c4)s3)[nH]c12` (centres undefined) it is 748 nM.

Take `O=C(NCCOc1ccccc1)[C@H](Cc1ccccc1)Nc1ccnc(NCC2CCCCC2)n1`: the XC50 stood at 1200 nM. For `Cc1ccc(Cn2ncc(NC3CCNCC3)c(Cl)c2=O)cc1NC(=O)Nc1ccc(-c2ccccc2)cc1`, the XC50 stood at 657 nM. As to `CCC1(C)N=C(N)N=C(N)N1c1ccc(Cl)cc1` (centres undefined), the XC50 was 159 nM. Regarding `Cc1cc(Nc2ccc(C)c(Cl)c2)n2ncnc2n1`, the XC50 was found to be 552 nM. Turning to `CC(CN(C)C)Oc1ccc2nc(-c3cccc(OCc4ccccc4)c3)[nH]c2c1C#N` (centres undefined), the XC50 stood at 407 nM. In the case of `Cc1nc2ccccc2n1C1CC2CCC(C1)N2Cc1nccn1-c1ccccc1` (centres undefined), the XC50 stood at 366 nM. With `COc1ccc(Cn2c(Nc3cccc(C(F)(F)F)c3)nc3cc(C(=O)NCCN4CCCC4)ccc32)cc1Cl`, the XC50 was 830 nM. Regarding `CC(=O)Nc1nc(C(=O)Nc2cccc(-c3cccc(-c4nc5cccc(C)c5[nH]4)c3)c2)cs1`, the XC50 was 115 nM. For `Fc1cc(Cl)ccc1Nc1ccnc2cc(-c3ccc(CN4CCCCC4)o3)ccc12`, the XC50 amounted to 337 nM.

In turn, `O=C(Cc1cccc2ccccc12)N1CCc2cc3nccc(N4CCN5CCC[C@H]5C4)c3cc21` registered an XC50 of 777 nM.

The compound `N#CC(c1ccc(Br)cc1)c1ccc2c(C(F)(F)F)cc(C(F)(F)F)nc2n1` (centres undefined) returned an XC50 of 440 nM. With `CC[C@H]1CN2CC[C@H]1C[C@H]2[C@H](O)c1cc(N2CCCC(CO)C2)nc2ccc(OC)cc12` (some centres undefined), the XC50 worked out at 77.5 nM. The compound `CCC[C@@H]([C@@H](CC1CCCCC1)C(=O)N[C@@H](CCCCNS(C)(=O)=O)C(=O)Nc1nccs1)N(O)C=O` displayed an XC50 of 81.1 nM. Compound `Cc1ccc(NC(=O)c2ccc(CN3CCCN(Cc4cccc(O)c4)CC3)cc2)cc1F` yielded an XC50 of 591 nM. Compound `CCOC(=O)c1c(CCc2ccc(C(F)(F)F)cc2)nc2c(c1-c1ccc(C(=O)N[C@@H](C)c3ccncc3)cc1)C(=O)N1CCC[C@@H]21` came in with an XC50 of 924 nM. The figure for `Cc1cnc(-c2ccc(NC(=O)c3coc4ccc(N5CC(C)N(C)C(C)C5)cc34)cc2)o1` (centres undefined) is 645 nM; for `CC1(C)NC(N)=NC(=N)N1OCc1nc(N)nc(Nc2ccccc2)n1` it is 274 nM; for `COc1ccc2c(c1)CC(C)(C)NC2CCCCCCCCC1NC(C)(C)Cc2cc(OC)ccc21` (centres undefined) it is 1300 nM.

In turn, `COc1cc(CNCCCCCCNCc2cc(OC)cc3ccccc23)c2ccccc2c1` registered an XC50 of 590 nM.

In turn, `O=C(c1cccc(Br)c1)N1CCN(c2ccc([N+](=O)[O-])c(NC3CC3)c2)CC1` yielded an XC50 of 936 nM. `N#Cc1ccc(-c2ccc(C(=O)NCCCCN3CCC(n4cnc5ccccc54)CC3)cc2)cc1` registered an XC50 of 910 nM. `COc1ccc(-c2ccc(NC(=O)c3cccc(Cl)c3)c(F)c2)cc1CNC(C)C` came in with an XC50 of 895 nM.

The record behind these values is ChEMBL document CHEMBL1157539, “Thousands of chemical starting points for antimalarial lead identification” (Nature, 2010).
